The text below walks through data of patent US20240262795A1, “PYRAZINE COMPOUNDS AS INHIBITORS OF FLT3” (Biomea Fusion, Inc., priority 2021, published 2024).

Structures are written as SMILES.

What all share (type): cell-based, human
The subject of one assay is MOLM-13. The experiment in a line: Proliferation inhibition, CellTiter-Glo, MOLM-13. To be noted: Homo sapiens, 96 h; MOLM-13 cells, IC50 (4 days), CellTiter-Glo; read-out: MOLM-13 IC50. From the text: (§1) The proliferation inhibitory effect was investigated in human AML cell lines MOLM-13 (AddexBio: C0003003) and MV-4-11 (ATCC: CRL-9591), and CML cell line […] (ATCC: CRL-3343). Molm-13 is heterozygous for FLT3-ITD mutation, while MV4-11 is homozygous for FLT3-ITD (Quentmeier H, et al., Leukemia. 17(1):120-4). […] Cells were maintained in RPMI-1640 medium (ThermoFisher catalog no. 61870036) supplemented with 10% of Heat Inactivated FBS (ThermoFisher catalog no. A31605) and 1% Pen-Strep (ThermoFisher catalog no. 10378016) and cultured at 37° C. in a humidified incubator with 5% CO2. Cell lines were grown by […], and the cells were maintained in a range 70%-80% confluency.
(§2) ATP is present in all metabolically active cells and is considered as a marker for cell viability and proliferation. Metabolic cell activity was determined using the CellTiter-Glo kit (Promega catalog no. G7572), an ATP monitoring system based on the production of luminescence by the reaction of ATP with added UltraGlo® recombinant luciferase (Kawano et al., 2016, PLOS One, 8; 11(7):e0158888), according to the supplier's experimental recommendations. The assay was based on a 96 well plate format.
(§3) Test compounds were dissolved at 10 mM in DMSO (Sigma catalog no. D8418; purity≥99.9%) and stored at −20° C. Eight concentrations of test compound were assessed in duplicate in an individual test occasion in parallel in the selected cell lines. Gilteratinib and FF-10101 were used as reference compounds and tested in duplicate at eight concentrations. 100% of proliferation is represented by the untreated cells (0.2% DMSO).
(§4) On the day of the experiment, cells were quantified with the cell viability analyzer NucleoCounter (Chemometec NC-200) and diluted with fresh medium to obtain the cell density of about 10,000 cells per 200 μL medium. 200 μL of cell suspension were added into wells in the 96 well plate.
(§5) After 2 hours from seeding cells, compounds at desired concentrations were added using a D300e compound dispenser (Life Sciences Tecan D300) with shaking between each compound dispensed. Assay plates were incubated at 37° C. in a humidified incubator with 5% CO2.
(§6) On day 4 (˜96 hrs after compound addition) assay plates were equilibrated at room temperature for approximately 15 min, and then 40 μL/well of the Promega CellTiterGlo® reagent was added. Contents were mixed for 5 min on an orbital shaker to promote cell lysis, and then incubated at room temperature for an additional 10 min in the dark to stabilize the luminescent signal. Luminescence was read by using a GloMlax GM300 plate reader (Promega) using the luminescence for 96 well plate standard protocol.
(§7) Results were analyzed by GraphPad (Prism) and IC50 values were calculated by non-linear regression using four parameter-logistic equation.
Background: Cellular ATP, detected with luciferase, serves as a proxy for viable cell number.

The next assay concerns MV-4-11. The experiment in a line: Proliferation inhibition, CellTiter-Glo, MV-4-11. As to conditions: Homo sapiens, MV4-11, 96 h; MV-4:11 cells, IC50 (4 days), CellTiter-Glo; read-out: MV-4:11 IC50.
Excerpt: as §1, §2, §3, §4, §5, §6, §7

The test system of the next assay is K-562. The experiment in a line: Proliferation inhibition, CellTiter-Glo, K-562. As to conditions: Homo sapiens, K562, 96 h; K-562 cells, IC50 (4 days), CellTiter-Glo; read-out: K-562 IC50.
Excerpt: as §1, §2, §3, §4, §5, §6, §7

Consider `Cc1nc(Nc2cc(F)cc(CCNC(=O)[C@H](C)N(C)C(=O)/C=C/CN(C)C)c2)c(C(N)=O)nc1C` [Compound 245, 3-[3-[2-[[(2S)-2-[[(E)-4-(dimethylamino)but-2-enoyl]-methyl-amino]propanoyl]amino]ethyl]-5-fluoro-anilino]-5,6-dimethyl-pyrazine-2-carboxamide], for which the IC50 in the assay with MOLM-13 was 10 to 100 nM; in the assay on MV-4-11, 1 to 10 nM; in the assay on K-562, over 500 nM.

In the case of `[2H]C([2H])([2H])N(C/C=C/C(=O)N(C)[C@@H](C)C(=O)NCCc1cccc(Nc2nc(N(C)CC)c(CC)nc2C(N)=O)c1)C([2H])([2H])[2H]` [Compound 246, (S,E)-3-((3-(2-(2-(4-(bis(methyl-d3)amino)-N-methylbut-2-enamido)propanamido)ethyl)phenyl)amino)-6-ethyl-5-(ethyl(methyl)amino)pyrazine-2-carboxamide], the IC50 was under 1 nM in the assay with MOLM-13, under 1 nM in the assay with MV-4-11 and over 500 nM with K-562.

In the case of `[2H]C([2H])([2H])N(C/C=C/C(=O)N(C)[C@@H](C)C(=O)NCCc1cccc(Nc2nc(N(C)C(C)C)c(C)nc2C(N)=O)c1)C([2H])([2H])[2H]` [Compound 247, (S,E)-3-((3-(2-(2-(4-(bis(methyl-d3)amino)-N-methylbut-2-enamido)propanamido)ethyl)phenyl)amino)-5-(isopropyl(methyl)amino)-6-methylpyrazine-2-carboxamide], the IC50 was 1 to 10 nM in the assay on MOLM-13, under 1 nM in the assay on MV-4-11 and over 500 nM with K-562.

Regarding `[2H]C([2H])([2H])N(C/C=C/C(=O)N(C)[C@@H](C)C(=O)NCCc1cccc(Nc2nc(C3CC3)c(C)nc2C(N)=O)c1)C([2H])([2H])[2H]` [Compound 248, (S,E)-3-((3-(2-(2-(4-(bis(methyl-d3)amino)-N-methylbut-2-enamido)propanamido)ethyl)phenyl)amino)-5-cyclopropyl-6-methylpyrazine-2-carboxamide], the IC50 in the assay on MOLM-13 was 1 to 10 nM; in the assay on MV-4-11, 1 to 10 nM; in the assay with K-562, over 500 nM.

Take `[2H]C([2H])([2H])N(C/C=C/C(=O)N(C)[C@@H](C)C(=O)NCCc1cccc(Nc2nc(N(C)C(C)C)c(CC)nc2C(N)=O)c1)C([2H])([2H])[2H]` [Compound 249, (S,E)-3-((3-(2-(2-(4-(bis(methyl-d3)amino)-N-methylbut-2-enamido)propanamido)ethyl)phenyl)amino)-6-ethyl-5-(isopropyl(methyl)amino)pyrazine-2-carboxamide]: the IC50 is under 1 nM in the assay on MOLM-13, under 1 nM with MV-4-11 and over 500 nM with K-562.

Regarding `Cc1nc(Nc2cc(F)cc(CCNC(=O)CN(C)C(=O)/C=C/CN(C)C)c2)c(C(N)=O)nc1C` [Compound 251, 3-[3-[2-[[2-[[(E)-4-(dimethylamino)but-2-enoyl]-methyl-amino]acetyl]amino]ethyl]-5-fluoro-anilino]-5,6-dimethyl-pyrazine-2-carboxamide], the IC50 in the assay with MOLM-13 is 10 to 100 nM; in the assay on MV-4-11, 1 to 10 nM; with K-562, over 500 nM.

For the compound `CCc1nc(Nc2cccc(CCNC(=O)[C@H](C)N(C)C(=O)/C=C/CN(C)C)c2)c(C(N)=O)nc1C` [Compound 255, 3-[3-[2-[[(2S)-2-[[(E)-4-(dimethylamino)but-2-enoyl]-methyl-amino]propanoyl]amino]ethyl]anilino]-5-ethyl-6-methyl-pyrazine-2-carboxamide], the values for the IC50 in the assay with MOLM-13, with MV-4-11 and in the assay on K-562 were 10 to 100 nM, 1 to 10 nM and over 500 nM, respectively.

With `Cc1nc(Nc2cccc(CCNC(=O)CN(C)C(=O)/C=C/CN(C)C)c2)c(C(N)=O)nc1C` [Compound 301, 3-[3-[2-[[2-[[(E)-4-(dimethylamino)but-2-enoyl]-methyl-amino]acetyl]amino]ethyl]anilino]-5,6-dimethyl-pyrazine-2-carboxamide], the IC50 in the assay on MOLM-13 is 10 to 100 nM; in the assay with MV-4-11 it was 10 to 100 nM; in the assay with K-562, over 500 nM.

In general, IC50 refers to the concentration that inhibits the measured activity by half.
